Here are results for 6 molecules from ChEMBL document CHEMBL1159157, “Novel inhibitors of influenza sialidase related to GG167 Synthesis of 4-amino and guanidino-4H-pyran-2-carboxylic acid-6-propylamides; selective inhibitors of influenza a virus sialidase” (Bioorg Med Chem Lett, 1996).

Converted amounts (≈) assume the structure as drawn.

Assay [1] deals with Influenza B virus. The experiment in a line: In vitro antiviral activity was evaluated in a plaque reduction assay against influenza B. The assay is classed as functional, organism-based. (Plaque reduction counts the foci of infection that form in a cell layer.)
The subject of assay [2] is Influenza A virus. In words: In vitro antiviral activity was evaluated in a plaque reduction assay against influenza A. The assay is classed as functional, organism-based.

Usually IC50 stands for the concentration that gives 50% inhibition. Read a high IC50 as weaker potency in that assay. With `CCCN(C)C(=O)[C@@H]1OC(C(=O)O)=C[C@H](NC(=N)N)[C@H]1NC(C)=O`, the IC50 in assay [1] is 2200 ng/mL (≈ 6.44 µM); in assay [2] it was 11 ng/mL (≈ 0.0322 µM).
`CCCN(CCC)C(=O)[C@@H]1OC(C(=O)O)=C[C@H](NC(=N)N)[C@H]1NC(C)=O` had an IC50 in assay [2] of 0.1 ng/mL (≈ 0.000271 µM).
Consider `CCCN(C)C(=O)[C@@H]1OC(C(=O)O)=C[C@H](N)[C@H]1NC(C)=O`, for which the IC50 in assay [1] came out at 16000 ng/mL (≈ 53.5 µM); in assay [2], 320 ng/mL (≈ 1.07 µM).
`CCCNC(=O)[C@@H]1OC(C(=O)O)=C[C@H](N)[C@H]1NC(C)=O` displayed an IC50 in assay [1] of 44000 ng/mL (≈ 154 µM).
Consider `CC(=O)N[C@H]1[C@H]([C@H](O)[C@H](O)CO)OC(C(=O)O)=C[C@@H]1N`, for which the 50% inhibitory concentration (IC50) in assay [1] is 20 ng/mL (≈ 0.0689 µM); in assay [2], 470 ng/mL (≈ 1.62 µM).
On the same counts, the results for `CCCNC(=O)[C@@H]1OC(C(=O)O)=C[C@H](NC(=N)N)[C@H]1NC(C)=O` are 3800 ng/mL (≈ 11.6 µM) and 280 ng/mL (≈ 0.855 µM).
